Source: patent US10995070B2, “Acetyl-CoA carboxylase modulators” (Monsanto Technology LLC, priority 2013, dated 2021)

Tests used:
[1] = target: Ustilago maydis acetyl CoA carboxylase (ACCase) (Ustilago maydis, UniProt A0A0D1DYD5); experiment: ACCase enzymatic assay (coupled PK/LDH, NADH OD340); assay type: biochemical; conditions: read-out: ACCase Inhibitory Activity IC50
Protocol: Ustilago maydis acetyl CoA carboxylase (ACCase) was cloned, expressed, and purified as described (Weatherly et al, Biochem. J., 2004) and the test compounds were tested in a 96-well plate format. Primary in vitro screening consisted of obtaining dose response data at 100, 33, 10, and 1 μM inhibitor. Actives in the primary screen were re-tested to establish IC50 values.
Direct detection of the conversion of acetyl CoA to malonyl CoA by ACCase was not feasible, but during this process ATP is converted to ADP which allowed for detection through a standard reaction coupling with ADP recycling to the oxidation of NADH. Thus, ACCase activity was measured via kinetic OD340 measurements of the conversion of NADH to NAD in a coupled reaction involving the conversion of phosphoenolpyruvate (PEP) to lactate.
The complete 200 ul reaction mixture contained 52.5 mM HEPES (pH8), 2.625 mM MgCl2, 1 mM ATP, 0.525 mM DTT, 11 mM NaHCO3, 1% DMSO with or without inhibitor, 1× pyruvate kinase/lactate dehydrogenase (PK/LDH), 0.3 mM NADH, 0.5 mM PEP, and 5 μg ACCase. The reactions were incubated at 30° C. for 10 minutes and then initiated by the addition of 0.33 mM acetyl CoA. The initiated reactions were read immediately via plate reader at OD340 and kinetic readings were acquired every 20 s for 15 minutes while keeping the temperature at 30° C.
A slope of the kinetic curve was determined by using the 2 to 7 minute data which was then calculated as percent inhibition relative to the no inhibitor control.
The primary screens were conducted in duplicate and the IC50's conducted in triplicate. Averages were reported along with standard deviation calculation to generate error bars.
Each plate contained its own controls and consisted of a DMSO only control, 5-fold titration series of soraphen from 2 μM to 3.2 nM, and an ADP coupled reaction control. […]
A slope of the kinetic curve was determined by using the 2 to 7 minute data which was then calculated as percent inhibition relative to the no inhibitor control. Those compounds which had no significant PK/LDH inhibition at or above the IC50 in the ACCase assay, were considered to be valid modulators of only ACCase.

[2] = system: Collectotrichum graminicola; experiment: Fungal growth inhibition assay, C. graminicola; assay type: cell-based; conditions: Colletotrichum graminicola, 48 h
Protocol: (§1) Spores were isolated from previously sub-cultured plates of Botrytis cinerea, Phytophthora capsici, Fusarium moniliforme, Fusarium viguliforme, Collectotrichum graminicola, and Diplodia maydis. All spores were filtered and collected in a sterile glass bowl to isolate the spores from the mycelia. The isolation and sub-culture plate condition for each pathogen is described below.
Spore isolation for C. graminicola: A 1-2 week old oatmeal agar (pre-mix) plate was removed from 26° C. incubator with a light/dark 12 hour cycle and the mycelia were treated with 10-15 ml of filter sterilized distilled water. The mycelia were scraped to re-suspend the spores. The spores were then collected in a sterile filter bowl containing a piece of sterile cheesecloth and poured into a conical tube.
(§2) After spore isolation, pathogen spores were counted on a hemocytometer to calculate the spores/ml. In 17% V8 liquid media containing 3 g/L CaCO3, isolated spores were diluted to individual concentrations based on the growth curves at 48 hours of each pathogen. The spore concentrations for each pathogen were as follows: B. cinerea—10,000 sp/ml; P. capsici—300 sp/ml; F. monliforme—500 sp/ml; F. virguliforme—500 sp/ml; C. graminicola—3,000 sp/ml; and D. maydis—3,000 sp/ml.
(§3) Chemistry stocks were dissolved in DMSO at 2.5 mg/ml. Chemistry was diluted in a 96-well stock plate in five-fold dilutions to obtain a final concentration of 50, 10, and 2 ppm in vitro. The final concentration of the positive control after the five-fold dilutions was as follows: soraphen—0.5, 0.1, and 0.02 ppm. Negative controls on each plate included 2% DMSO, water containing spores and media, and a blank for background subtraction.
(§4) In a 96-well plate the spore solution, chemistries, and controls were combined to make the final solution concentrations mentioned above. Upon addition of the chemistry, an OD600 reading was done to assess chemical precipitation. The 96-well plates were incubated in plastic tubs containing wet paper towels under the following conditions, 25° C. in the dark for P. capsici and B. cinerea or 26° C. with light/dark cycle for C. graminicola, D. maydis, F. virguliforme, F. monliforme. Plate readings were repeated at 24 and 48 hrs. Visual ratings were performed at 24 and 48 hrs to check for precipitation and confirm efficacy. Visual and OD600 ratings of the chemistry at 48 hours were compared to the 2% DMSO control to determine the percent of pathogen growth inhibition.

Diplodia maydis = experiment: Fungal growth inhibition assay, D. maydis; assay type: cell-based; conditions: 48 h
Protocol: as §1
Spore isolation for D. maydis: A 3-4 week old PDA (pre-mix) plate was removed from 26° C. incubator with a light/dark 12 hour cycle and the mycelia were treated with 6-7 ml of sterile distilled water, scraped into a sterile petri dish, and smashed to open the pycnidia. The spores were then collected in a sterile filter bowl containing a fluted piece of filter paper and poured into a conical tube.
as §2, §3, §4

Fusarium virguliforme = experiment: Fungal growth inhibition assay, F. virguliforme; assay type: cell-based; conditions: 48 h
Protocol: as §1
Spore isolation for F. virguliforme: A 2-3 week old PDA (pre-mix) plate containing cefotaxime (100 mg/L) and kanamycin (50 mg/L) was removed from 26° C. incubator with a light/dark 12 hour cycle and the mycelia were treated with 5-10 ml of filter sterilized distilled water. The mycelia were scraped to re-suspend the spores. The spores were then collected in a sterile filter bowl containing a fluted piece of filter paper and poured into a conical tube.
as §2, §3, §4

Phytophthora capsici = experiment: Fungal growth inhibition assay, P. capsici; assay type: cell-based; conditions: 48 h
Excerpt: as §1
Spore isolation for P. capsici: Three to five days prior to the assay a 2-3 week old V8 (17%)+CaCO3 (3 g/L)+20 g agar plate was removed from a dark 25° C. incubator and cut up into small chunks. One plate was separated into two deep well plates and rinsed with sterile distilled water three times. The cut up pieces were incubated under light in a sterile filter hood with 25 ml of sterile distilled water. On the day of the assay the water was removed and 5-7 ml of fresh sterile distilled water was added. One plate was incubated at 4° C. for 45-60 minutes and then placed at room temperature for about 45-60 minutes. The spores were collected in a sterile filter bowl containing a fluted piece of filter paper. The spores were vortexed in a conical tube for 30-60 seconds to remove the flagella of the zoospores after isolation.
as §2, §3, §4

Fusarium moniloforme = experiment: Fungal growth inhibition assay, F. moniliforme; assay type: cell-based; conditions: 48 h
Protocol: as §1
Spore isolation for F. moniliforme: A 1 week old PDA (potato dextrose agar, pre-mix) plate was removed from 26° C. incubator with a light/dark 12 hour cycle and the mycelia were treated with 5-10 ml of filter sterilized Triton X 100 (0.05%). The mycelia were scraped to re-suspend the spores. The spores were then collected in a sterile filter bowl containing a fluted piece of filter paper.
as §2, §3, §4

Chain of Ustilago maydis acetyl CoA carboxylase (ACCase) (A0A0D1DYD5 1-2185): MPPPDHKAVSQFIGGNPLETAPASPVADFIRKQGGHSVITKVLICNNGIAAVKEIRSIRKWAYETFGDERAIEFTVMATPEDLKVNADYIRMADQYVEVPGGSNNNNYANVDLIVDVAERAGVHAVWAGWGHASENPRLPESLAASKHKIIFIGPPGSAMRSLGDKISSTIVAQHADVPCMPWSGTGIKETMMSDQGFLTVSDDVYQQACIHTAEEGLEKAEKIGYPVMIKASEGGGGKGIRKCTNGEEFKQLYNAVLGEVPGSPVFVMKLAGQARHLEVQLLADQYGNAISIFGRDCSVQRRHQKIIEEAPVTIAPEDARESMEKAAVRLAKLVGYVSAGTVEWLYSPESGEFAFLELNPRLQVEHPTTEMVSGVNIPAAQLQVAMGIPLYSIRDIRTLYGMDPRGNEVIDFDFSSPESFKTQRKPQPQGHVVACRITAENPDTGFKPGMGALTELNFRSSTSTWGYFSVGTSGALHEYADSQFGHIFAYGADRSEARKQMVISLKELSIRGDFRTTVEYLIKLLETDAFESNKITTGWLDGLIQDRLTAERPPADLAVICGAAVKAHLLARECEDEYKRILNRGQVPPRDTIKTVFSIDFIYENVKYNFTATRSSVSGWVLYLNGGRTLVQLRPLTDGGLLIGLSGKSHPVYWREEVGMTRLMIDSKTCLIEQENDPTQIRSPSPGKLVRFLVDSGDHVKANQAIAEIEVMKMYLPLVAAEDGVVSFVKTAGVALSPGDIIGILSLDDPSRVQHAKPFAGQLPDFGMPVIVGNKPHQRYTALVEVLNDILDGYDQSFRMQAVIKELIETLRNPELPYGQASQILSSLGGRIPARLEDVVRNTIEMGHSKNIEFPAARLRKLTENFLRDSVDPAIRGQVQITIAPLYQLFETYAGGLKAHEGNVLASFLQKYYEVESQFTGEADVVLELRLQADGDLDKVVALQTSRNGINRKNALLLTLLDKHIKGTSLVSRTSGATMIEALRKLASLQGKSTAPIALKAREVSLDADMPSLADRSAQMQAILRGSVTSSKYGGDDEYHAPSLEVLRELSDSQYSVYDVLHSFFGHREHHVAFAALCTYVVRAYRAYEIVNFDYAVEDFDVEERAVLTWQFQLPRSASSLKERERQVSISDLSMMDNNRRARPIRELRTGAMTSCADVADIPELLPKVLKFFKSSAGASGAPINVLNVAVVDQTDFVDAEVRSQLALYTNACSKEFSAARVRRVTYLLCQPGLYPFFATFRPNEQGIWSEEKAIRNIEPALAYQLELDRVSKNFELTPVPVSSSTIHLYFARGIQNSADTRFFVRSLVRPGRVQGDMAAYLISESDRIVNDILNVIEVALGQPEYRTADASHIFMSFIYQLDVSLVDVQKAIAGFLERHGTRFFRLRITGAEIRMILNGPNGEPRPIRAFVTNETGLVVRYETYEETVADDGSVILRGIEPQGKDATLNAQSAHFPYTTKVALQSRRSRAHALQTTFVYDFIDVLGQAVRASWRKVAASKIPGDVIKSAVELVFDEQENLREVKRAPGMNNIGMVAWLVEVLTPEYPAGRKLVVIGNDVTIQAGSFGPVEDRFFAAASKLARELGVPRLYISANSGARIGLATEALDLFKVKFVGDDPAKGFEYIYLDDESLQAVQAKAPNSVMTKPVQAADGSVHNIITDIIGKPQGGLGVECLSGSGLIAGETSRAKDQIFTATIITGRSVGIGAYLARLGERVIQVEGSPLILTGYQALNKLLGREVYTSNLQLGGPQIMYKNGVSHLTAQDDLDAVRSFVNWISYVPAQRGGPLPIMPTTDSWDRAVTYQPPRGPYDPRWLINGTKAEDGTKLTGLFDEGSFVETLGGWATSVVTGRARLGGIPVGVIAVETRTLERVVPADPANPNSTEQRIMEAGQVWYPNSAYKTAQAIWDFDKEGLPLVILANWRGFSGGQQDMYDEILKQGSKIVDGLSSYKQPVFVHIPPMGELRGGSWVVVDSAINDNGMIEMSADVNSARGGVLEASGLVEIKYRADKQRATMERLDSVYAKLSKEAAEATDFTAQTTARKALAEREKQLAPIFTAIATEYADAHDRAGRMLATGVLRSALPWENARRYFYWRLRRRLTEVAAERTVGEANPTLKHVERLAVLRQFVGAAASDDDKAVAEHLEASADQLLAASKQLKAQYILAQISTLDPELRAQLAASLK

Row | Structure (SMILES) | IC50 [1] [nM] | inhibition at 2 ppm [2] [%] | inhibition at 10 ppm [2] [%] | inhibition at 50 ppm [2] [%] | inhibition at 2 ppm (Diplodia maydis) [%] | inhibition at 10 ppm (Diplodia maydis) [%] | inhibition at 2 ppm (Fusarium virguliforme) [%] | inhibition at 10 ppm (Fusarium virguliforme) [%] | inhibition at 2 ppm (Phytophthora capsici) [%] | inhibition at 10 ppm (Phytophthora capsici) [%] | inhibition at 50 ppm (Phytophthora capsici) [%] | inhibition at 2 ppm (Fusarium moniloforme) [%] | inhibition at 10 ppm (Fusarium moniloforme) [%] | inhibition at 50 ppm (Diplodia maydis; 50 ppm) [%] | inhibition at 50 ppm (Fusarium moniloforme; 50 ppm) [%]
1 | O=C(O)Cc1ccc(-c2nc3ccccc3c(-c3ccccc3)c2Cl)s1 [Formula Ib-ii, 2-(5-(3-chloro-4-phenylquinolin-2-yl)thiophen-2-yl)acetic acid] | 110 | 0 | 67 | 78 | 55 | 70 | 31 | 41 | 18 | 31 | 49 | 39 | 45 | – | –
2 | O=C(O)Cc1ccc(-c2cc(-c3ccccc3)c3ccccc3n2)s1 [Formula Ib-iv, 2-(5-(4-phenylquinolin-2-yl)thiophen-2-yl)acetic acid] | 145 | 0 | 53 | 97 | 8 | 45 | 4 | 29 | 0 | 11 | 80 | 17 | 31 | 89 | 36
